Measurements reported in ChEMBL document CHEMBL6114989, “D-morphinan analogs with favorable pharmacokinetic profiles as dual-acting antidepressants” (Eur J Med Chem, 2025).
Calls of active or inactive are those of the source. The calls are words filed in the database; no cut-off is given here.

Legend:
[1] = biological target: Sodium-dependent serotonin transporter (Homo sapiens, UniProt P31645)
[2] = biological target: T1, Sodium-dependent noradrenaline transporter (Homo sapiens, UniProt P23975); assay: Inhibition of NET (unknown origin) at 10 uM relative to control
T1 sequence (P23975 whole entry): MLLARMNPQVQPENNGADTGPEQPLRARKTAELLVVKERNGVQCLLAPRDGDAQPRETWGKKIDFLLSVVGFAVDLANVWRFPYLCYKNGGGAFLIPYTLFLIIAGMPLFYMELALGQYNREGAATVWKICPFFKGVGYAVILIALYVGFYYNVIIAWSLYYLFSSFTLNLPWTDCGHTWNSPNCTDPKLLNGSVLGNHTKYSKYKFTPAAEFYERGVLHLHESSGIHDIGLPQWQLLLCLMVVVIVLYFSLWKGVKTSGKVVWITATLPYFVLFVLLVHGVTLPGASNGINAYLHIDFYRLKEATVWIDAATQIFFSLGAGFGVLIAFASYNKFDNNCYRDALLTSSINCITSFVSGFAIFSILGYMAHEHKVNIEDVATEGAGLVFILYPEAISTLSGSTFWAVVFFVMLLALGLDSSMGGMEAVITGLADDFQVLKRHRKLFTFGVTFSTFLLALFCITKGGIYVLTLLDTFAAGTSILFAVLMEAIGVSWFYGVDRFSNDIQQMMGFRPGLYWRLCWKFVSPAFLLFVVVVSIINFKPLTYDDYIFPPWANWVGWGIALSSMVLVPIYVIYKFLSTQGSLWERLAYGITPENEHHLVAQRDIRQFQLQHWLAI

[3] = biological target: Sodium-dependent dopamine transporter (Homo sapiens, UniProt Q01959); assay: Inhibition of DAT (unknown origin) at 10 uM relative to control
Chain of Sodium-dependent dopamine transporter (Q01959 whole entry): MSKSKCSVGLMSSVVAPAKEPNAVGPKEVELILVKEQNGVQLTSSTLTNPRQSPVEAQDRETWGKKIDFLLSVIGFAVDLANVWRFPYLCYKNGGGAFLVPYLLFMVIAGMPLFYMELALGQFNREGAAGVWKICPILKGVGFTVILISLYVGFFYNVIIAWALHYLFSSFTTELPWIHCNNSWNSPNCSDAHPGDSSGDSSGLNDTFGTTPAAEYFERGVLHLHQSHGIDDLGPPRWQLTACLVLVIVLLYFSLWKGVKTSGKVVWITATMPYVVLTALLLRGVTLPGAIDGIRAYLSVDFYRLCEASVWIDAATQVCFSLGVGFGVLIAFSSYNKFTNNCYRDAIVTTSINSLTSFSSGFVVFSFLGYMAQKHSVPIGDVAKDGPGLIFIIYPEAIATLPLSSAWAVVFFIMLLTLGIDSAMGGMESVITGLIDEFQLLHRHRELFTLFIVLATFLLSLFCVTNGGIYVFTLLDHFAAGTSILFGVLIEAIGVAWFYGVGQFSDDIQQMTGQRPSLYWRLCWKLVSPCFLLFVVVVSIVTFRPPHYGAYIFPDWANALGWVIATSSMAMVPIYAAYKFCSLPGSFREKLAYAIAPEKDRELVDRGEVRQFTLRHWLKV

Mu-type opioid receptor = Mu-type opioid receptor (Homo sapiens, UniProt P35372); assay: Agonist activity at human mu-opioid receptor stably expressed in CHO cells assessed as inhibition of forskolin-induced cAMP accumulation at 30 uM preincubated with compound for 10 mins followed by forskolin induction and measured after 30 mins by LANCE Ultra cAMP assay relative to control; format: functional, cell-based; conditions: time 40.0 min
Chain of Mu-type opioid receptor (P35372 whole entry): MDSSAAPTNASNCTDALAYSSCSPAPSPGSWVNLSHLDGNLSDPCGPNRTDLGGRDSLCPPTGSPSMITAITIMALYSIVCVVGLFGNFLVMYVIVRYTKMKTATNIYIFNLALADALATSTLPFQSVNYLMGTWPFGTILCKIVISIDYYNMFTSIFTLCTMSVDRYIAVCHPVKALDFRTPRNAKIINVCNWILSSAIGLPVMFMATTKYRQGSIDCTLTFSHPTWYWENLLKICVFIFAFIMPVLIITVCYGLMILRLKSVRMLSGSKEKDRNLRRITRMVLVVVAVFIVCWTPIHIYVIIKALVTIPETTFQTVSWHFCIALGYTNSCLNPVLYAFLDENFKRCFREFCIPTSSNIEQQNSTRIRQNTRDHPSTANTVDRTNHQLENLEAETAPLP

[4] = Selectivity index, ratio of IC50 for inhibition of human GluN1/GluN2A NMDA receptor expressed in HEK293 cells to IC50 for inhibition of SERT (unknown origin); format: cell-based
[5] = biological target: Glutamate NMDA receptor; GRIN1/GRIN2A (Homo sapiens, UniProt Q05586+Q12879); assay: Antagonist activity at human GluN1/GluN2A NMDA receptor expressed in HEK293 cells assessed as reduction in glutamate induced current at -70 mV holding potential by whole-cell patch clamp technique; format: cell-based
Chain of Glutamate NMDA receptor; GRIN1/GRIN2A (Q12879 whole entry, other chains not shown): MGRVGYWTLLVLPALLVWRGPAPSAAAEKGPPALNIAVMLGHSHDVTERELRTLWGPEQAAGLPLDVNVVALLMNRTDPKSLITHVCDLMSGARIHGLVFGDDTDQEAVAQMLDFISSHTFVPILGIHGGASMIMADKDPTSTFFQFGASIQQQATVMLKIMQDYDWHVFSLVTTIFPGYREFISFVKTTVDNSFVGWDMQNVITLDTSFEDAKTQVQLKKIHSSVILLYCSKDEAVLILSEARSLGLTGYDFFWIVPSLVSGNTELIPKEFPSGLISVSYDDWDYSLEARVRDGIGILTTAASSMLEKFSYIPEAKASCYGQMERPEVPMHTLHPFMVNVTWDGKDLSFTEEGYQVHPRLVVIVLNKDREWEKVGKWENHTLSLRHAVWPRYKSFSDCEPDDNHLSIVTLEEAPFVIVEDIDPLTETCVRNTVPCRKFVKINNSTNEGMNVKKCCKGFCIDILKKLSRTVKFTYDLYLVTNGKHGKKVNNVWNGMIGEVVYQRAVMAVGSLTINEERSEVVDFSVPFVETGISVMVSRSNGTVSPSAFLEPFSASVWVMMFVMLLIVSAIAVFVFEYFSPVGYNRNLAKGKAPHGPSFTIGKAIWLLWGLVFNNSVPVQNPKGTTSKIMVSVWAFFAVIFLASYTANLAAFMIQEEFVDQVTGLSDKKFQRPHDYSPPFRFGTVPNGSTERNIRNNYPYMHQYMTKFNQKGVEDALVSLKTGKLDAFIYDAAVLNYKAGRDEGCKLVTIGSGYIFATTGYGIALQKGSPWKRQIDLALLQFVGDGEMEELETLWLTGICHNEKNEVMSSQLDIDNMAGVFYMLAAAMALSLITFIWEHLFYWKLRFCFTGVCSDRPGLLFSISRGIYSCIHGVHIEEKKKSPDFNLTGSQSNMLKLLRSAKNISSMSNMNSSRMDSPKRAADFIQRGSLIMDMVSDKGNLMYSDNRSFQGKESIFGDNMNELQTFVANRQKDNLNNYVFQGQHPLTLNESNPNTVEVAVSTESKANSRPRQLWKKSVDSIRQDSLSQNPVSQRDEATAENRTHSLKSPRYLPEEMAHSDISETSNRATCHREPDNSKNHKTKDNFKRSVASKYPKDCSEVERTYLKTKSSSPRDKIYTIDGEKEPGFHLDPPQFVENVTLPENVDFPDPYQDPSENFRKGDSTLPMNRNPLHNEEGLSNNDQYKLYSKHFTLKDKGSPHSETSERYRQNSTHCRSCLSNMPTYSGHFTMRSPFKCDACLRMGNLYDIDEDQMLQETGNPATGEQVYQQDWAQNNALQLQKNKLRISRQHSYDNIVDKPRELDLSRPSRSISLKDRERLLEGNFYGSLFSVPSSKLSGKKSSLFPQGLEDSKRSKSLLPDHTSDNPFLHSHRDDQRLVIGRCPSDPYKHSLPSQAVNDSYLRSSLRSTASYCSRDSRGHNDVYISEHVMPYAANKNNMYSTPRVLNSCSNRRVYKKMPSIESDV

[6] = Metabolic stability in human liver microsome assessed as hepatic clearance in presence of NADPH measured upto 60 mins by LC-MS/MS analysis; format: ADME; conditions: liver microsomes
[7] = Metabolic stability in human liver microsome assessed as intrinsic clearance in presence of NADPH measured upto 60 mins by LC-MS/MS analysis; format: ADME; conditions: liver microsomes, read-out: CLH
[8] = Metabolic stability in human liver microsome assessed as half life in presence of NADPH measured upto 60 mins by LC-MS/MS analysis; format: ADME; conditions: liver microsomes
[9] = Metabolic stability in human liver microsome assessed as hepatic extraction ratio in presence of NADPH measured upto 60 mins by LC-MS/MS analysis; format: ADME; conditions: liver microsomes, read-out: ERH
[10] = Metabolic stability in mouse liver microsome assessed as hepatic clearance in presence of NADPH measured upto 60 mins by LC-MS/MS analysis; format: ADME; conditions: liver microsomes
[11] = Metabolic stability in mouse liver microsome assessed as intrinsic clearance in presence of NADPH measured upto 60 mins by LC-MS/MS analysis; format: ADME; conditions: liver microsomes, read-out: CLH
[12] = Metabolic stability in mouse liver microsome assessed as half life in presence of NADPH measured upto 60 mins by LC-MS/MS analysis; format: ADME; conditions: liver microsomes
[13] = Metabolic stability in mouse liver microsome assessed as hepatic extraction ratio in presence of NADPH measured upto 60 mins by LC-MS/MS analysis; format: ADME; conditions: liver microsomes, read-out: ERH
[14] = Half life in ICR mouse at 10 mg/kg, po measured upto 24 hrs by LC-MS/MS analysis; format: ADME, organism-based; conditions: in vivo
[15] = Tmax in ICR mouse at 10 mg/kg, po measured upto 24 hrs by LC-MS/MS analysis; format: ADME, organism-based; conditions: in vivo
[16] = Cmax in ICR mouse at 10 mg/kg, po measured upto 24 hrs by LC-MS/MS analysis; format: ADME, organism-based; conditions: in vivo
[17] = AUC (0 to t) in ICR mouse at 10 mg/kg, po measured upto 24 hrs by LC-MS/MS analysis; format: ADME, organism-based; conditions: in vivo
[18] = AUC (0 to infinity) in ICR mouse at 10 mg/kg, po measured upto 24 hrs by LC-MS/MS analysis; format: ADME, organism-based; conditions: in vivo
[19] = MRT (0 to t) in ICR mouse at 10 mg/kg, po measured upto 24 hrs by LC-MS/MS analysis; format: ADME, organism-based; conditions: in vivo
[20] = Half life in ICR mouse at 10 mg/kg, ip measured upto 24 hrs by LC-MS/MS analysis; format: ADME, organism-based; conditions: in vivo
[21] = Tmax in ICR mouse at 10 mg/kg, ip measured upto 24 hrs by LC-MS/MS analysis; format: ADME, organism-based; conditions: in vivo
[22] = Cmax in ICR mouse at 10 mg/kg, ip measured upto 24 hrs by LC-MS/MS analysis; format: ADME, organism-based; conditions: in vivo
[23] = AUC (0 to t) in ICR mouse at 10 mg/kg, ip measured upto 24 hrs by LC-MS/MS analysis; format: ADME, organism-based; conditions: in vivo
[24] = AUC (0 to infinity) in ICR mouse at 10 mg/kg, ip measured upto 24 hrs by LC-MS/MS analysis; format: ADME, organism-based; conditions: in vivo
[25] = MRT (0 to infinity) in ICR mouse at 10 mg/kg, ip measured upto 24 hrs by LC-MS/MS analysis; format: ADME, organism-based; conditions: in vivo
Mus musculus [26] = assay: Antidepressant activity in ip dosed C57BL/6J mouse assessed as reduction in of immobility time by forced swim test; format: functional, organism-based; conditions: dose 10-20 mg/kg
Mus musculus [27] = assay: Antidepressant activity in C57BL/6J mouse assessed as reduction in of immobility time at 20 mg/kg, ip by forced swim test; format: functional, organism-based
[28] = Hepatotoxicity against human HepG2 cells assessed as reduction in cell viability at 100 to 200 uM incubated for 48 hrs by celltiter-luminescence assay; format: toxicity, cell-based; conditions: hepg2, 48 h, dose 100-200 µM
HEK293 [29] = assay: Nephrotoxicity against human HEK293 cells assessed as reduction in cell viability at 100 to 200 uM incubated for 48 hrs by celltiter-luminescence assay; format: toxicity, cell-based; conditions: hek293, 48 h, dose 100-200 µM
[30] = Hepatotoxicity against human HepG2 cells assessed as inhibition of cell proliferation incubated for 48 hrs by celltiter-luminescence assay; format: toxicity, cell-based
[31] = Nephrotoxicity against human HEK293 cells assessed as inhibition of cell proliferation incubated for 48 hrs by celltiter-luminescence assay; format: toxicity, cell-based
[32] = biological target: Voltage-gated inwardly rectifying potassium channel KCNH2 (Homo sapiens, UniProt Q12809); assay: Inhibition of hERG expressed in CHO cells assessed as inhibition of channel current at holding potential of -80 mV by automated patch clamp method; format: toxicity, cell-based
Chain of Voltage-gated inwardly rectifying potassium channel KCNH2 (Q12809 whole entry): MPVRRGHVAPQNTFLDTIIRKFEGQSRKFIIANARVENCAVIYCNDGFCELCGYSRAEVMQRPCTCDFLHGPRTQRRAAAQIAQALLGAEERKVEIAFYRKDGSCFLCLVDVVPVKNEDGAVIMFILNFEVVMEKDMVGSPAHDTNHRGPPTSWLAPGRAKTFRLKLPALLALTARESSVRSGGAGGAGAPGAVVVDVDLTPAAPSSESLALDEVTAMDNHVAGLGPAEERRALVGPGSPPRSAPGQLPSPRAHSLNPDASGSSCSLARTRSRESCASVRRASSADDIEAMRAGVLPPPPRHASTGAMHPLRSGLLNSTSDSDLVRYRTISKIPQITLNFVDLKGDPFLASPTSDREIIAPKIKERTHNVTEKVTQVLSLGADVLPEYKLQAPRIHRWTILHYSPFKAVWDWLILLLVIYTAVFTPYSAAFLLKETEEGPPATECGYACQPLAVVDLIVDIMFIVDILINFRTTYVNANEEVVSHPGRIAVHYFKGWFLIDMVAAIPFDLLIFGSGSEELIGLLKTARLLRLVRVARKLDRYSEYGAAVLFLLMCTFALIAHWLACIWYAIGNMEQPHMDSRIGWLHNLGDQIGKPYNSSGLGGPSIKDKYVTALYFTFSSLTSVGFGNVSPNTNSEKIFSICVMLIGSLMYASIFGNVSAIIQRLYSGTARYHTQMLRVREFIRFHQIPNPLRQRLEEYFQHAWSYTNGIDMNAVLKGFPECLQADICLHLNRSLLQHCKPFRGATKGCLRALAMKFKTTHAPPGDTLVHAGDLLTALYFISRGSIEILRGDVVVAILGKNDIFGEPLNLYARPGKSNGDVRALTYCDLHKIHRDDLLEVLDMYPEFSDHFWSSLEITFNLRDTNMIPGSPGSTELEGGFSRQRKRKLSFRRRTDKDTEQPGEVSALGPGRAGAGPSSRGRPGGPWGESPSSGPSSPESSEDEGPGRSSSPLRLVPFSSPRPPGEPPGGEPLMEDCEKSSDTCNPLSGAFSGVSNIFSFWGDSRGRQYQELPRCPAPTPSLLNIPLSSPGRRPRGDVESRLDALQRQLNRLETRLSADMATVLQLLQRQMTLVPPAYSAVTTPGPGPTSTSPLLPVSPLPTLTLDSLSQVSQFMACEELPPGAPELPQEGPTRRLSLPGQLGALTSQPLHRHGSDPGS

[33] = biological target: T1, Sodium-dependent noradrenaline transporter; assay: Inhibition of human NET
Mus musculus [34] = assay: Antidepressant activity in C57BL/6J mouse assessed as reduction in of immobility time at 10 to 30 mg/kg, po by forced swim test; format: functional, organism-based; conditions: dose 10-30 mg/kg
Mus musculus [35] = assay: Antidepressant activity in C57BL/6J mouse assessed as reduction in of immobility time at 10 to 30 mg/kg, po in presence of quinidine by forced swim test; format: functional, organism-based; conditions: dose 10-30 mg/kg
[36] = Hepatotoxicity against human HepG2 cells assessed as reduction in cell viability at 50 uM incubated for 48 hrs by celltiter-luminescence assay; format: toxicity, cell-based; conditions: hepg2, 48 h
HEK293 [37] = assay: Nephrotoxicity against human HEK293 cells assessed as reduction in cell viability at 200 uM incubated for 48 hrs by celltiter-luminescence assay; format: toxicity, cell-based; conditions: hek293, 48 h

Chain of Sodium-dependent serotonin transporter (P31645 whole entry): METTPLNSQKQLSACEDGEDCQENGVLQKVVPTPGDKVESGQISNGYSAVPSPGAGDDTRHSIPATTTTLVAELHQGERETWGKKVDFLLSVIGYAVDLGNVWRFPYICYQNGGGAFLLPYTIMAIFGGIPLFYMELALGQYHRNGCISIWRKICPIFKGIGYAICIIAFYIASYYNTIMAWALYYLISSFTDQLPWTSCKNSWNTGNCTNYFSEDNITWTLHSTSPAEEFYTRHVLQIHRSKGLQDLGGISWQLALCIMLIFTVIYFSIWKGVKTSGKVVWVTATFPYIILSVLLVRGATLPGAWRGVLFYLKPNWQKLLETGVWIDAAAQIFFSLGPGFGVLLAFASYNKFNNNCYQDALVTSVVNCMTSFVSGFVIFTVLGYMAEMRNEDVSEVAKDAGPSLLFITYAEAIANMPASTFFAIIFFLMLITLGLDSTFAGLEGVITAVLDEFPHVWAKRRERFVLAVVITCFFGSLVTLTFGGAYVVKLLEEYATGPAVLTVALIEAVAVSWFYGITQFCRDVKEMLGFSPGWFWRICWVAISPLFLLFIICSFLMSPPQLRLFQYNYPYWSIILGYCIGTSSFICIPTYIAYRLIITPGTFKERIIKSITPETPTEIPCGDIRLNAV

| SMILES | inhibition [3] | inhibition (Mu-type opioid receptor) | IC50 [5] | CLhep predicted [6] | CLint scaled [7] | half-life [8] | CLhep predicted [10] | CLint scaled [11] | half-life [12] | half-life [14] | Tmax [15] | Cmax [16] | AUC(0-t) at 24 h [17] | AUC(0-inf) [18] | MRT last at 24 h [19] | half-life [20] | Tmax [21] | Cmax [22] | AUC(0-t) at 24 h [23] | AUC(0-inf) [24] | also measured |
| --- | --- | --- | --- | --- | --- | --- | --- | --- | --- | --- | --- | --- | --- | --- | --- | --- | --- | --- | --- | --- | --- |
| CN1CC[C@@]23CCCC[C@@H]2[C@@H]1Cc1ccc(N)cc13 | 11% | 11% | 3.5 µM | 11 mL/min/kg | 23.2 mL/min/kg | 2.08 h | 38.9 mL/min/kg | 68.4 mL/min/kg | 2.28 h | 3.24 h | 0.42 h | 1380 ng/mL | 2710 ng·h/mL | 2720 ng·h/mL | 2.45 h | 2.92 h | 4.8 min | 1360 ng/mL | 2520 ng·h/mL | 2520 ng·h/mL | IC50 [1]: 1040 µM; inhibition [2]: 4%; Ratio IC50 [4]: 3.35; hepatic extraction ratio at 1 h [9]: 0.525; hepatic extraction ratio at 1 h [13]: 0.423; MRT inf [25]: 2.64 h; Activity (Mus musculus [26]): Dose-dependent-effect; Activity (Mus musculus [27]): Active; Activity [28]: Non-toxic; Activity (HEK293 [29]): Non-toxic; IC50 at 48 h [30]: > 200 µM; IC50 at 48 h [31]: > 200 µM; IC50 [32]: 22.1 µM |
| COc1ccc2c(c1)[C@]13CCCC[C@@H]1[C@H](C2)N(C)CC3 [DEXTROMETHORPHAN] | inactive | 5% | 1.04 µM | 10.5 mL/min/kg | 20.9 mL/min/kg | 2.32 h | 72 mL/min/kg | 360 mL/min/kg | 0.433 h | 3.17 h | 0.83 h | 57.7 ng/mL | 198 ng·h/mL | 207 ng·h/mL | 5.1 h | 1.93 h | 8.4 min | 720 ng/mL | 817 ng·h/mL | 820 ng·h/mL | IC50 [33]: […]; MRT inf [25]: 1.33 h; Activity (Mus musculus [34]): inactive; Activity (Mus musculus [35]): Active; Activity [36]: Non-toxic; Activity (HEK293 [37]): Toxic; IC50 at 48 h [30]: > 200 µM; IC50 at 48 h [31]: > 200 µM; IC50 [32]: 13 µM |
